According to patent publication US5155209A, “R-(+) enantiomeric form of 7-(2, 3-epoxypropoxy) actinomycin D” (priority 1991, dated 1992):

Columns and labels:
P388/ADR [1] = test: Antitumor activity against ip implanted P388/ADR in CDF1 mice; type: in vivo; design: OD (optimal dose of drugs): unit not given here; conditions: for % ILS (percent increase in median life time vs controls) / (surv) number of 60 days survivors/number of animals tested / MST (median survival time): ip qd 1-9, at optimal dose; for OD (optimal dose of drugs): treated ip qd 1-9
Experimental: ^e Optimal dose of drugs.
^ f Median survival time of tumor bearing mice.
^g Percent increase in median life time in days of drugtreated dying
animals vs those of controls; (survivors), number of 60 days
survivors/number of animals tested in the group.
In order to examine a broader spectrum of activity, these optical isomers are tested in two other mouse leukemia cell lines in vivo. One cell line, P388/ADR, is a derivative of the above P388/S made resistant to intercalating agents like […].

B16 melanoma [2] = test: B16 melanoma implanted ip, drug ip (ip-ip) in BDF1 mice; type: in vivo; conditions: B16 ip implanted; for % ILS / (surv) sixty day survivors/number of mice treated / MST (median survival time): drug ip days 1, 5, 9; for OD (optimal dose): drug ip days 1, 5, 9, 0.1 mL vehicle
Experimental: (§1) Subcutaneously implanted B16 melanoma in BDF1 mice is a slow growing tumor, but its rate of growth becomes faster when it is implanted ip. […] This is not consistent with data in other tumors; however, in this connection it should be pointed out that the combined effects of drugs (or enantiomers in this case) can be manifested in several ways, i.e., they can be synergistic, additive, or subtractive.
(§2) 0.2 ml of brei (tumor weight/Hank's balanced salt solution, (1:5) of B16
(§3) implanted sc or ip into groups of nine BDF1 mice on day 0. Drugs
(§4) administered iv on day 1 or ip on days 1, 5, and 9, following tumor
(§5) administered ip on days 1, 5, and 9. OD, optimal dose in
(§6) milligrams/milliliter of vehicle, and administered iv or ip in 0.1 mL of
(§7) vehicle (5% v/v Me2 SOsaline). MST, median survival times in days of
(§8) tumor bearing and nondrug treated (control) or drugtreated mice. % ILS,
(§9) percent increase in life span of drug treated groups over the control
(§10) group of test animals, excluding survivors. (surv), number of sixty day
(§11) survivors/number of mice treated with drug.

C26 colon carcinoma = C26 colon carcinoma implanted in CDF1 mice, drug ip; type: in vivo; conditions: for % ILS / (surv) sixty day survivors/number of mice treated / MST: drug ip days 1, 5, 9; for OD (optimal dose): drug ip days 1, 5, 9, 0.1 mL vehicle
Experimental: implantation. Primary colon C26 carcinoma (tripan blue excluding, 2.5
× 10^5 cells/mouse) implanted in CDF1 mice on day 0; drug
as §5, §6, §7, §8, §9, §10, §11

[3] = system: RNA synthesis in L1210 cells; test: Inhibition of RNA synthesis in L1210 ([5-3H]uridine incorporation); type: cell-based, Murine; conditions: [5-3H]uridine incorporation into RNA; read-out: inhibition of synthesis of nucleic acids in L1210 IC50 RNA
Experimental: (§12) ^a Drug concentration (micromolor) for 50% reduction of incorporation
(§13) of [methyl^14 C]thymidine into DNA^b and [5^3 H] uridine into
(§14) RNA^c from the rate of incorporation of the same radionucleotides in
(§15) nondrug treated L1210 cells growing actively in vitro.
(§16) Inhibition of nucleic acid synthesis in L1210 lymphoid leukemia cells by (±)-EPA and it optical isomers are assayed. […] To achieve this, a digestion of the nucleic acid pellet with DNase-free RNase enzyme, prior to final pelleting of the DNA precipitate is made to ensure that no more than ±8% contamination from […] into DNA takes place, and for this the necessary correction is made in the data reported in Table V.

L1210 cells = test: Inhibition of growth of L1210 cells in culture; type: cell-based, Murine
Experimental: (§17) The analogues are assayed for in vitro growth inhibitory activity against several experimental tumor lines including human and murine leukemia, mouse melanoma, and human lymphoblastic leukemia.

B16 melanoma [4] = test: B16 melanoma implanted sc, drug iv (sc-iv) in BDF1 mice; type: in vivo; conditions: B16 sc implanted; for % ILS / (surv) sixty day survivors/number of mice treated / MST (median survival time): drug iv day 1; for OD (optimal dose): drug iv day 1, 0.1 mL vehicle
Experimental: as §1, §2, §3, §4, §5, §6, §7, §8, §9, §10, §11

[5] = system: DNA synthesis in L1210 cells; test: Inhibition of DNA synthesis in L1210 ([methyl-14C]thymidine incorporation); type: cell-based, Murine; conditions: [methyl-14C]thymidine incorporation into DNA; read-out: inhibition of synthesis of nucleic acids in L1210 IC50 DNA
Experimental: as §12, §13, §14, §15, §16

[6] = system: P388/S lymphocytic leukemia; conditions: cited from earlier work
B16 = test: Inhibition of growth in vitro of B16 cells; type: cell-based, mouse; conditions: actively growing tumor cells
Experimental: as §17

P388/ADR [7] = test: Inhibition of growth in vitro of P388/ADR cells; type: cell-based, mouse; conditions: actively growing tumor cells
Experimental: as §17

CCRF-CEM [8] = conditions: cited from earlier work
leukemia L1210 = test: Activity in mice bearing leukemia L1210; type: in vivo; conditions: L1210 ip in CDF1 mouse; for OD (optimal dose): ip days 1, 5, 9; for % ILS (percent increase in median life span) / (surv) number of over 60 days survivors/number of animals tested: ip days 1, 5, 9, at optimal dose
Source text: ^e OD, optimal dose of drugs in milligrams/killograms per injection,
administered ip on days 1, 5, and 9, following ip inoculation with
^f % ILS, percent increase in median life span in days, of the
tumorbearing drugtreated dying animals when compared with similar tumor
bearing mice but not treated with drugs. (surv), number of over 60 days
survivors/number of animals tested.

CCRF-CEM [9] = test: In vitro growth inhibition of CCRF-CEM human lymphoblastic leukemia cells; type: cell-based; conditions: purer (90%) form of isomers
Experimental: as §17

Compound | % ILS (percent increase in median life time vs controls) (P388/ADR [1]) [%] | (surv) number of 60 days survivors/number of animals tested (P388/ADR [1]) | MST (median survival time) (P388/ADR [1]) [days] | OD (optimal dose of drugs) (P388/ADR [1]) | % ILS (B16 melanoma [2]) [%] | (surv) sixty day survivors/number of mice treated (B16 melanoma [2]) | OD (optimal dose) (B16 melanoma [2]) | % ILS (C26 colon carcinoma) [%] | (surv) sixty day survivors/number of mice treated (C26 colon carcinoma) | MST (C26 colon carcinoma) [days] | OD (optimal dose) (C26 colon carcinoma) | inhibition of growth of L1210 cells in culture; ID50 (L1210 cells) [nM] | % ILS (B16 melanoma [4]) [%] | (surv) sixty day survivors/number of mice treated (B16 melanoma [4]) | MST (median survival time) (B16 melanoma [4]) [days] | OD (optimal dose) (B16 melanoma [4]) | inhibition of growth ID50 B16 (B16) [nM] | inhibition of growth ID50 P388/ADR (P388/ADR [7]) [nM] | OD (optimal dose) (leukemia L1210) | % ILS (percent increase in median life span) (leukemia L1210) [%] | further results
CO[C@@]12[C@H](COC(N)=O)C3=C(C(=O)C(C)=C(N)C3=O)N1C[C@@H]1N[C@@H]12 [mitomycin, mitomycin C, reference compound] | 400 | 5/10 | 45 | 1.0 | – | – | – | – | – | – | – | – | – | – | – | – | – | – | – | – | –
Cc1c2oc3c(C)c(OCC4CO4)cc(C(=O)NC4C(=O)NC(C(C)C)C(=O)N5CCCC5C(=O)N(C)CC(=O)N(C)C(C(C)C)C(=O)OC4C)c3nc-2c(C(=O)NC2C(=O)NC(C(C)C)C(=O)N3CCCC3C(=O)N(C)CC(=O)N(C)C(C(C)C)C(=O)OC2C)c(N)c1=O (racemic) [3b[(±)-EPA]] [7-(2,3-epoxypropoxy) actinomycin D] | 344 | 4/10 | 40 | 0.65 | 105 | 2/9 | 0.30 milligrams/milliliter of vehic | 64 | 0/10 | 36.0 | 0.60 milligrams/milliliter of vehic | 28.7 ± 8.7 | 64 | 0/9 | 54.0 | 1.0 milligrams/milliliter of vehic | 2.5 ± 0.6 | 80 ± 11 | 0.05 milligrams/killograms per inje | 186 | IC50 [3]: 24 ± 4 nM; % ILS (percent increase in median life time vs controls) (P388/ADR [1]; listed as racemic EPA): 344%; (surv) number of 60 days survivors/number of animals tested (P388/ADR [1]; listed as racemic EPA): four out of 10; IC50 [5]: 80 ± 19 nM; antitumor activity in P388/S mouse leukemia in vivo [6]: high antitumor activity; antitumor activity in CCRF-CEM cells in vitro (CCRF-CEM [8]): high antitumor activity; (surv) number of over 60 days survivors/number of animals tested (leukemia L1210): 2/9
COc1cccc2c1C(=O)c1c(O)c3c(c(O)c1C2=O)C[C@@](O)(C(=O)CO)C[C@@H]3O[C@H]1C[C@H](N)[C@H](O)[C@H](C)O1 [adriamycin, reference compound] | – | – | – | – | 224 | 7/9 | 5.0 milligrams/milliliter of vehic | 118 | 3/10 | 48.0 | 2.50 milligrams/milliliter of vehic | – | 79 | 1/9 | 59.0 | 5.0 milligrams/milliliter of vehic | – | – | – | – | MST (median survival time) (B16 melanoma [2]): 60.0 days
Cc1c2oc3c(C)c(OCC4CO4)cc(C(=O)NC4C(=O)NC(C(C)C)C(=O)N5CCCC5C(=O)N(C)CC(=O)N(C)C(C(C)C)C(=O)OC4C)c3nc-2c(C(=O)NC2C(=O)NC(C(C)C)C(=O)N3CCCC3C(=O)N(C)CC(=O)N(C)C(C(C)C)C(=O)OC2C)c(N)c1=O [(S)-(-)-EPA, 7-(2,3-epoxypropoxy) actinomycin D] | 377 | 5/10 | 43 | 0.80 | 74 | – | 0.30 milligrams/milliliter of vehic | 64 | 1/10 | 36.0 | 0.90 milligrams/milliliter of vehic | 56.8 ± 8.8 | 60 | – | 53.0 | 1.0 milligrams/milliliter of vehic | 3.5 ± 1.0 | 135 ± 12 | 0.05 milligrams/killograms per inje | 143 | MST (median survival time) (B16 melanoma [2]): 33.0 days; 50% growth inhibitory dose (ID50) (CCRF-CEM [9]; listed as S-(-) isomer): 3.5 nM; (surv) number of over 60 days survivors/number of animals tested (leukemia L1210): 1/9
Cc1c2oc3c(C)c(OCC4CO4)cc(C(=O)NC4C(=O)NC(C(C)C)C(=O)N5CCCC5C(=O)N(C)CC(=O)N(C)C(C(C)C)C(=O)OC4C)c3nc-2c(C(=O)NC2C(=O)NC(C(C)C)C(=O)N3CCCC3C(=O)N(C)CC(=O)N(C)C(C(C)C)C(=O)OC2C)c(N)c1=O [(R)-(+)-EPA, 7-(2,3-epoxypropoxy) actinomycin D] | 400 | 4/10 | 45 | 0.30 | 105 | 2/9 | 0.30 milligrams/milliliter of vehic | 89 | 2/10 | 41.5 | 0.60 milligrams/milliliter of vehic | 23.1 ± 7.7 | 70 | 1/9 | 56.0 | 1.0 milligrams/milliliter of vehic | 2.0 ± 0.4 | 40 ± 12 | 0.05 milligrams/killograms per inje | 199 | MST (median survival time) (B16 melanoma [2]): 39.0 days; 50% growth inhibitory dose (ID50) (CCRF-CEM [9]; listed as R-(+) isomer): 2.0 nM; (surv) number of over 60 days survivors/number of animals tested (leukemia L1210): 3/9
